Data taken from PubChem BioAssay (NCI).
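96-well plates; 48 h exposure; 5 concentrations. Endpoints by linear interpolation between flanking doses. Not reached: highest tested concentration assigned. The concentration for full growth arrest is given as TGI.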 Where a SMILES comes first, the peptide text is derived from it. The star is where a group is joined. OSu = O=C1CCC(=O)N1O*

Legend:
Assay in all cases: inhibition of tumour cell growth, NCI panel, 48 h
786-0 renal = test system: 786-0 renal
HCT-15 colon = test system: HCT-15 colon
HT29 colon = test system: HT29 colon
K-562 leukemia = test system: K-562 leukemia
MDA-MB-231 breast = test system: MDA-MB-231 breast
NCI-H226 lung = test system: NCI-H226 lung
OVCAR-3 ovarian = test system: OVCAR-3 ovarian
SN12C renal = test system: SN12C renal
KM12 colon = test system: KM12 colon
HOP-92 NSCLC = test system: HOP-92 NSCLC

SMILES	TGI (786-0 renal)	TGI (HCT-15 colon)	TGI (HT29 colon)	TGI (K-562 leukemia)	TGI (MDA-MB-231 breast)	TGI (NCI-H226 lung)	TGI (OVCAR-3 ovarian)	TGI (SN12C renal)	TGI (KM12 colon)	TGI (HOP-92 NSCLC)
CCOC1CCN(C(=O)c2ccccc2)O1 (stereo not given)	> 10 µM	> 10 µM	> 10 µM	> 10 µM	> 10 µM	> 10 µM	> 10 µM	> 10 µM		
OC12c3ccccc3C1CCCCCC21OCCCO1 (stereo not given)	> 100 µM	> 100 µM	> 100 µM	> 100 µM		> 100 µM	> 100 µM	> 100 µM	> 100 µM	
CC(=O)c1c(O)n(-c2ccc(C)cc2)c(=O)c2c(N)n[nH]c12	> 100 µM	> 100 µM	> 100 µM	> 100 µM	> 100 µM	> 100 µM	> 100 µM	> 100 µM	> 100 µM	
COc1cc(OC)c(OC)cc1/C=C/c1cc[n+](C)c2ccccc12	> 100 µM	> 100 µM	> 100 µM	19.4 µM					75 µM	76.2 µM
NCCCCC(NC(=O)C(N)Cc1ccc(O)cc1)C(=O)NC(Cc1ccc(O)cc1)C(=O)NC(CCCCN)C(=O)ON1C(=O)CCC1=O (stereo not given) (H-YKYK-OSu; configuration not given here)	> 100 µM	> 100 µM	> 100 µM	> 100 µM	> 100 µM	> 100 µM		> 100 µM	> 100 µM	> 100 µM
CCC(=O)Nc1ccc(NCC(=O)Nc2ccc(OC)cc2)cc1	46.4 µM	> 100 µM	> 100 µM	> 100 µM		37.7 µM	78.6 µM	37.5 µM	> 100 µM	66.3 µM
CCOc1cc(-c2nc3cc(F)ccc3s2)ccc1O	29.6 µM	29 µM	34.8 µM	25.9 µM	48.4 µM	34.2 µM	35 µM	35.6 µM	36 µM	
C=CCCC(=O)C(=[N+]=[N-])C(=O)CCC(=O)c1ccccc1	> 10 µM	> 10 µM	> 10 µM	> 10 µM	> 10 µM	> 10 µM	> 10 µM	> 10 µM		> 10 µM
C=CCn1c(=N)/c(=C(\N)O)s/c1=C1/SC(=S)N(c2ccc(C)cc2)C1=O			> 100 µM	> 100 µM		> 100 µM	> 100 µM		> 100 µM	> 100 µM
COc1cc2c(c(OC)c1OC)-c1ccc(SC)c(=O)cc1C(CC(=O)Oc1cccc(F)c1)C2 (stereo not given)	> 100 µM	1.97 µM	0.557 µM	> 52.4 µM		0.794 µM	0.305 µM	16.6 µM	1.14 µM	> 81.3 µM
CCn1c(CSc2nc(-c3ccccc3)c(-c3ccccc3)[nH]2)n[nH]c1=S	> 100 µM	> 100 µM	> 100 µM			> 100 µM	> 100 µM	> 100 µM	> 100 µM	> 100 µM
[N-]=[N+]=Nc1ccc2c(c1)Sc1ccccc1N2CCCCN1CCN(C(=O)CCNC(=O)Cc2ccc(C(=O)c3ccccc3)cc2)CC1	22.9 µM	8.52 µM	4.67 µM		16.9 µM	> 100 µM	18.3 µM	> 33 µM	23 µM	> 29.2 µM
COc1ccc2c3c1OC1C(OC)(OC)CC4(C=C2)CN(C)CCC314 (stereo not given)	> 100 µM	> 100 µM	> 100 µM	> 100 µM	> 100 µM	> 100 µM	> 100 µM	> 100 µM	> 100 µM	
COc1cc(C2c3cc4c(cc3[C@@H](N(C)c3ccc(N(C)C)cc3)C3COC(=O)C23)OCO4)cc(OC)c1O (stereo not given in full)	26.4 µM	25.7 µM	2.62 µM	30.6 µM		0.625 µM	0.516 µM	18.1 µM	21.5 µM	36.8 µM
COC(=O)C1(O)C(c2ccccc2)NC2(C)CCCC21 (stereo not given)	> 100 µM	> 100 µM			> 100 µM	> 100 µM		> 100 µM	> 100 µM	
O=[N+]([O-])C(C(Cl)=C(Cl)Cl)=C(n1cncn1)n1cncn1	45.4 µM	36.7 µM	39.4 µM	> 100 µM	39.3 µM	> 100 µM	38.4 µM	26.9 µM	> 100 µM	
CN(C)N=Nc1ccc2[nH]c(=O)[nH]c2c1	> 100 µM	> 100 µM	> 100 µM	> 100 µM	> 100 µM	> 100 µM	> 100 µM	> 100 µM	> 100 µM	
CNC(=S)/C(C#N)=C(\N)N1CCCC1	> 100 µM	> 100 µM	> 100 µM	> 100 µM	> 100 µM	> 100 µM	> 100 µM	> 100 µM	> 100 µM	
Cc1ccc(C2C(Cl)C(=O)N2NC(=O)c2ccc(N)cc2)cc1 (stereo not given)	37.8 µM	29.9 µM	39.9 µM	61.2 µM		65.4 µM	36.7 µM	52.2 µM	> 100 µM	28.5 µM
CC12CCC(CC1(Cl)Cl)C2 (stereo not given)	> 100 µM	> 100 µM	> 100 µM	> 100 µM		> 100 µM	> 100 µM	> 100 µM	> 100 µM	> 100 µM
O=C1C(Cl)=C(NCCF)C(=O)c2ncccc21	3.21 µM	4.87 µM	7.29 µM	2.82 µM	4 µM	3.99 µM	5.45 µM	3.35 µM	3.38 µM	
O=C1NC(=Nc2ccccc2)C(=Nc2ccccc2)N1c1ccccc1	29 µM	28.2 µM	29.6 µM	72.2 µM	35.6 µM	32 µM		30.5 µM	32.8 µM	30 µM
CCOC(=O)c1nc2cc(C(F)(F)F)ccc2nc1Oc1ccc(F)cc1	> 100 µM	> 100 µM		> 100 µM	> 100 µM	> 100 µM	> 100 µM	> 100 µM	> 100 µM	> 100 µM
